Reference: US12221445B2, “Crystalline salts of 5-methyl-(6S)-tetrahydrofolic acid and amino ethyl esters” (MERCK PATENT GMBH, priority 2018, dated 2025)
Structures can show the parent of a compound that is named as a salt.

Columns and labels:
[1] = Kinetic solubility in water (one minute agitation, gravimetric evaluation); conditions: for amount dissolved within one minute in 2.00 ml water: according to Example 6; for kinetic solubility (mg of 5-methyl-(6S)-tetrahydrofolic acid per mL): purified/de-ionized water, room temperature, agitated one minute, expressed as 5-methyl-(6S)-tetrahydrofolic acid
Protocol: 42.3 mg of the anhydrous form of the crystalline salt of 5-methyl-(6S)-tetrahydrofolic acid and L-phenylalanine ethyl ester according to Example 4 was weighed into a 7 mL glass vial with a screw cap. 2.00 mL of purified/de-ionized water (for instance water for chromatography) was added to the solid using an adjustable volumetric pipette. The mixture was vigorously agitated at room temperature for one minute.
The solution was filtered by centrifugal filtration and 1.50 mL of the aqueous solution was transferred into a tared glass vial (about 10 mL volume). The water was evaporated in an air dryer at 40° C. for about 15 hours, then at 50° C. for about eight hours, subsequently drying was completed at 50° C. under vacuum (10 to 20 mbar) for about 13 hours. The solubility was determined by gravimetric evaluation of the solid residue.
2.00 mL of purified/de-ionized water (for instance water for chromatography) was added to the solid using an adjustable volumetric pipette. The mixture was vigorously agitated at room temperature for one minute. […] The suspension was filtered by centrifugal filtration and 1.50 mL of the aqueous solution was transferred into a tared glass vial (about 10 mL volume). The water was evaporated in an air dryer at 40° C. for about 15 hours, then at 50° C. for about eight hours, subsequently drying was completed at 50° C. under vacuum (10 to 20 mbar) for about 13 hours. The solubility was determined by gravimetric evaluation of the solid residue.

[2] = at 50% to 60% relative humidity; listed as crystalline salt of 5-methyl-(6S)-tetrahydrofolic acid and L-methionine ethyl es
[3] = at room temperature; calcium salt; cited from earlier work
[4] = Dynamic water vapor sorption (DVS) experiment; assay type: physicochemical; conditions: FIG. 3; for change of relative sample mass during DVS test: RH program 50→20→75→50%, 5% per hour; for change in water content: relative humidity range between 20% and 75%
Protocol: DVS measurements are typically performed with an SPS11-100n “Sorptions Prufsystem” from ProUmid (formerly “Projekt Messtechnik”), August-Nagel-Str. 23, 89079 Ulm (Germany).
22 mg of the salt of 5-methyl-(6S)-tetrahydrofolic acid with L-phenylalanine ethyl ester Form B according to Example 2 was weighed into an aluminum sample pan for DVS measurement. A DVS measurement was performed. For relative humidity (RH) scans, change rates of 5% per hour were used. The sample pan was placed into the instrument and a defined relative humidity change program was started according to the following steps: • (1) Maintained RH for 2 hours at 50%, then • (2) scanned RH from 50→20% at a rate of 5% per hour and maintained RH at 20% for 10 hours, then • (3) scanned RH from 20→75% at a rate of 5% per hour and maintained RH at 75% for 10 hours, then • (4) scanned RH from 75→50% RH at a rate of 5% per hour and maintained RH at 50% for two hours.

**Q.** Which “kinetic solubility expressed as 5-methyl-(6S)-tetrahydrofolic acid” value ([1]; at r.t., corresponds to mg/ml of 5-methyl-(6S)-tetrahydrofolic acid) does the source give for “5-methyl-(6S)-tetrahydrofolic acid L-methionine ethyl ester salt” here?
**A.** The value was “greater than 18 mg/ml”.

**Q.** With “5-methyl-(6S)-tetrahydrofolic acid L-methionine ethyl ester salt [Example 7]” as the molecule, how does the water content [2] read?
**A.** Its water content is “below 1%”.

**Q.** Which water content [2] does the source give for “5-methyl-(6S)-tetrahydrofolic acid L-methionine ethyl ester salt [Example 8]” here?
**A.** The water content was “about 5%”.

**Q.** Which aqueous solubility [3] does the source give for “5-methyl-(6S)-tetrahydrofolic acid calcium salt [calcium salt (Form I)]” here?
**A.** The aqueous solubility was “about 10 mg/ml”.

**Q.** Which aqueous solubility [3] does the source give for “5-methyl-(6S)-tetrahydrofolic acid calcium salt [calcium salt (Form III)]” here?
**A.** Its aqueous solubility is “about 2.5 mg/ml”.

**Q.** With `CCOC(=O)[C@@H](N)Cc1ccccc1.CCOC(=O)[C@@H](N)Cc1ccccc1.CN1c2c([nH]c(N)nc2=O)NC[C@@H]1CNc1ccc(C(=O)N[C@@H](CCC(=O)O)C(=O)O)cc1` [5-methyl-(6S)-tetrahydrofolic acid L-phenylalanine ethyl ester 1:2 salt] as the molecule, how does the “amount dissolved within one minute in 2.00 ml water” value [1] read?
**A.** The value was 11.3 mg.

**Q.** And the “improvement of kinetic solubility versus calcium salt metastable Form I” value ([1]; versus the known (metastable Form I) of the calcium salt)?
**A.** The value was “about 50%”.

**Q.** And the “change of relative sample mass during DVS test” value [4]?
**A.** Its value is “less than 0.3%”.

**Q.** And the “change in water content” value [4]?
**A.** The value was “less than 0.3%”.

**Q.** With `CN1c2c(nc(N)[nH]c2=O)NC[C@@H]1CNc1ccc(C(=O)N[C@@H](CCC(=O)O)C(=O)O)cc1` [5-methyl-(6S)-tetrahydrofolic acid calcium salt, reference compound] as the molecule, how does the “amount dissolved within one minute in 2.00 ml water” value [1] read?
**A.** The value was 9.0 mg.

**Q.** What about the “kinetic solubility (mg of 5-methyl-(6S)-tetrahydrofolic acid per mL)” value [1] of the same molecule?
**A.** The value was 9.0 mg per mL.

**Q.** What about the solubility kinetic at 1 min ([1]; water, thermodynamic from solid) of the same molecule?
**A.** The solubility kinetic at 1 min was < 10 mg/mL.

**Q.** And the “change of relative sample mass during DVS test” value [4]?
**A.** Its value is “about 3%”.

**Q.** And the “change in water content” value [4]?
**A.** The value was “about 3%”.

**Q.** With `CCOC(=O)[C@@H](N)Cc1ccccc1.CCOC(=O)[C@@H](N)Cc1ccccc1.CN1c2c([nH]c(N)nc2=O)NC[C@@H]1CNc1ccc(C(=O)N[C@@H](CCC(=O)O)C(=O)O)cc1` [Example 4, 5-methyl-(6S)-tetrahydrofolic acid L-phenylalanine ethyl ester 1:2 salt] as the molecule, how does the “kinetic solubility (mg of 5-methyl-(6S)-tetrahydrofolic acid per mL)” value [1] read?
**A.** Its value is 11.3 mg per mL.
